Test results: BindingDB's records for doi:10.1016/j.bioorg.2016.01.003 (Panjab University, 2016)

Tests used:
Assay in all cases: Radioligand Binding Assay
Adenosine receptor A1 = biological target: T1, Adenosine receptor A1 (Homo sapiens, UniProt P30542)
T1 sequence (P30542 whole entry): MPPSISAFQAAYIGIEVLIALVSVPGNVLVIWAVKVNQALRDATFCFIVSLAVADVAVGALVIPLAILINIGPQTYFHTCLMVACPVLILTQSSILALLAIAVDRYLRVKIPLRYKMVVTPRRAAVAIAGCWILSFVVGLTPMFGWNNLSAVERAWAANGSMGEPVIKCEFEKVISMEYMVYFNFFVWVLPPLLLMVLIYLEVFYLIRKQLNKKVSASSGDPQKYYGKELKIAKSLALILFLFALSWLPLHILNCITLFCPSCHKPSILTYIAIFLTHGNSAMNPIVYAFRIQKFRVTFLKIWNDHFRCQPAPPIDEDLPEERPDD
Procedure: (§1) Dissociation constants at A1, A2A and A3 receptors (Ki-values) were determined in radioligand competition experiments as reported earlier [19,20]. All binding experiments were done in a microplate format utilizing a 96-well microplate filtration system (Millipore Multiscreen MAFC). As radioligands the agonists [3H]CCPA (1 nM) for A1, [3H]NECA (10 nM) for A2A, and [3H]HEMADO (1 nM) for A3 receptors were used. Samples were incubated with 10 µg of membrane protein for 3 h at 25 °C, filtered through the built-in filter at the bottom of the wells and washed three times with […] of ice-cold binding buffer. After addition of 20 µl of scintillator to the dried filter plates samples were counted in a Wallac Micro-Beta counter. Nonspecific binding was determined in the presence of 1 mM theophylline ([3H]CCPA) or […] (N6-phenylisopropyladenosine; [3H]NECA and [3H] HEMADO).

Adenosine receptor A2a = Adenosine receptor A2a (Homo sapiens, UniProt P29274)
Procedure: as §1

Adenosine receptor A2b = biological target: T2, Adenosine receptor A2b (Homo sapiens, UniProt P29275)
T2 sequence (P29275 whole entry): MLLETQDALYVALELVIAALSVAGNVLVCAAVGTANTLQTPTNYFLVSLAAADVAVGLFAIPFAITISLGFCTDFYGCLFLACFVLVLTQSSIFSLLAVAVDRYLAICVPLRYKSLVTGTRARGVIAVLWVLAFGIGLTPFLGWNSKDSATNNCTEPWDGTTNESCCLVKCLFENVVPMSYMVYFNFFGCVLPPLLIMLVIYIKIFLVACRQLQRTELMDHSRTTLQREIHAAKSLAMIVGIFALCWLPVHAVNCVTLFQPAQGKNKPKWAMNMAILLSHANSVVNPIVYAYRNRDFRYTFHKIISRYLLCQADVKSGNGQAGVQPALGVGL

Chain of Adenosine receptor A2a (P29274 whole entry): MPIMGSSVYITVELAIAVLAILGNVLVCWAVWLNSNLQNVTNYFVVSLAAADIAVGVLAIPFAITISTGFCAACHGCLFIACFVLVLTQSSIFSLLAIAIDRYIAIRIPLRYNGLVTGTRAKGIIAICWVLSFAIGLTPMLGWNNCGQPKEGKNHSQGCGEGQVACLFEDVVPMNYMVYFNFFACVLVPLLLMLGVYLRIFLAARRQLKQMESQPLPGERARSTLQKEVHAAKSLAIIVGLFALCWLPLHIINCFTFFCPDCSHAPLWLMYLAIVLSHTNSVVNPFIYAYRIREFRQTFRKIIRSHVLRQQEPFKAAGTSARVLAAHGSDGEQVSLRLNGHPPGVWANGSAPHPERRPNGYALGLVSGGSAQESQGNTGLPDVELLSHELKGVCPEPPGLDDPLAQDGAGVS

Row | Structure (SMILES) | Ki (Adenosine receptor A1) [µM] | Ki (Adenosine receptor A2a) [µM] | Ki (Adenosine receptor A2b) [µM]
1 | COc1cc(-c2nc3c([nH]2)c(=O)n(C)c(=O)n3C)ccc1OCC(=O)N1CCN(C)CC1 [1,3-Dimethyl-8-[3-methoxy-4-{2-(1-methylpiperazin-4-yl)-2-oxoethoxy}-phenyl]-xanthine (15g, RB-446)] | > 30 | 4.21 | > 10
2 | Cn1c(=O)c2[nH]c(-c3cccc(OCC(=O)N4CCCCCC4)c3)nc2n(C)c1=O [1,3-Dimethyl-8-[3-{2-(hexamethyleneimin-1-yl)-2-oxoethoxy}-phenyl]xanthine (14e, RB-376)] | 2.43 | 0.226 | 6.28
3 | Cn1c(=O)c2[nH]c(-c3cccc(OCC(=O)N4CCCC4)c3)nc2n(C)c1=O [1,3-Dimethyl-8-[3-{2-(pyrrolidin-1-yl)-2-oxoethoxy}-phenyl]xanthine (14c, RB-381)] | 3.29 | 0.237 | > 10
4 | CN1CCN(C(=O)COc2cccc(-c3nc4c([nH]3)c(=O)n(C)c(=O)n4C)c2)CC1 [1,3-Dimethyl-8-[3-{2-(1-methylpiperazin-4-yl)-2-oxoethoxy}-phenyl]xanthine (14g, RB-380)] | 1.9 | 0.561 | 8.21
5 | COc1ccc(-c2nc3c([nH]2)c(=O)n(C)c(=O)n3C)cc1OCC(=O)N1CCCCCC1 [1,3-Dimethyl-8-[{3-(2-(hexamethyleneimin-1-yl)-2-oxoethoxy)-4-methoxy}-phenyl]xanthine (16e, RB-449)] | 1.91 | 0.094 | 3.94
6 | CCN(CC)CCNC(=O)COc1ccc(-c2nc3c([nH]2)c(=O)n(C)c(=O)n3C)cc1 [8-[4-{2-(Diethylaminoethylamino)-2-oxoethoxy}-phenyl]-1,3-dimethylxanthine (13b, RB-421)] | 0.298 | 0.063 | 0.968
7 | COc1ccc(CCNC(=O)COc2ccc(-c3nc4c([nH]3)c(=O)n(C)c(=O)n4C)cc2OC)cc1OC [1,3-Dimethyl-8-[{4-(2-(homoveratrylamino)-2-oxoethoxy)-3-methoxy}-phenyl]-xanthine (15i, RB-389)] | > 30 | 0.843 | > 30
8 | COC(=O)COc1cccc(-c2nc3c([nH]2)c(=O)n(C)c(=O)n3C)c1 [1,3-Dimethyl-8-[3-(2-methoxy-2-oxoethoxy)-phenyl]xanthine (14, RB-374)] | 3.95 | 0.375 | > 10
9 | COc1ccc(CCNC(=O)COc2cc(-c3nc4c([nH]3)c(=O)n(C)c(=O)n4C)ccc2OC)cc1OC [1,3-Dimethyl-8-[{3-(2-(homoveratrylamino)-2-oxoethoxy)-4-methoxy}-phenyl]xanthine (16i, RB-412)] | > 30 | 0.772 | > 30
10 | COC(=O)COc1ccc(-c2nc3c([nH]2)c(=O)n(C)c(=O)n3C)cc1 [1,3-Dimethyl-8-[4-(2-methoxy-2-oxoethoxy)-phenyl]xanthine (13, RB-419)] | 0.319 | 0.17 | 0.98
11 | Cn1c(=O)c2[nH]c(-c3cccc(OCC(=O)N4CCCCC4)c3)nc2n(C)c1=O [1,3-Dimethyl-8-[3-{2-(piperidin-1-yl)]-2-oxoethoxy}-phenyl]xanthine (14d, RB-382)] | 1.52 | 0.209 | 4.04
12 | COc1ccc(CCNC(=O)COc2cccc(-c3nc4c([nH]3)c(=O)n(C)c(=O)n4C)c2)cc1OC [1,3-Dimethyl-8-[3-{2-(homoveratrylamino)-2-oxoethoxy}-phenyl]xanthine (14i, RB-377)] | 5.98 | 1.39 | > 10
13 | COc1ccc(-c2nc3c([nH]2)c(=O)n(C)c(=O)n3C)cc1OCC(=O)NCCN(C)C [1,3-Dimethyl-8-[{3-(2-(dimethylaminoethylamino)-2-oxoethoxy)-4-methoxy}-phenyl]-xanthine (16a, RB-413)] | 0.847 | 0.075 | 4.8
14 | Cn1c(=O)c2[nH]c(-c3ccc(OCC(=O)N4CCCC4)cc3)nc2n(C)c1=O [1,3-Dimethyl-8-[4-{2-(pyrrolidin-1-yl)-2-oxoethoxy}-phenyl]xanthine (13c, RB-426)] | 0.796 | 0.122 | 1.49
15 | COc1cc(-c2nc3c([nH]2)c(=O)n(C)c(=O)n3C)ccc1OCC(=O)N1CCCCCC1 [1,3-Dimethyl-8-[{4-(2-(hexamethyleneimin-1-yl)-2-oxoethoxy)-3-methoxy}-phenyl]xanthine (15e, RB-387)] | > 10 | 2.41 | 7.82
16 | COc1ccc(-c2nc3c([nH]2)c(=O)n(C)c(=O)n3C)cc1OCC(=O)N1CCCC1 [1,3-Dimethyl-8-[4-methoxy-3-{2-(pyrrolidin-1-yl)-2-oxoethoxy}-phenyl]xanthine (16c, RB-414)] | 5.94 | 0.259 | > 10
17 | Cn1c(=O)c2[nH]c(-c3ccc(OCC(=O)N4CCCCCC4)cc3)nc2n(C)c1=O [1,3-Dimethyl-8-[4-{2-(hexamethyleneimin-1-yl)-2-oxoethoxy}-phenyl]xanthine (13e, RB-424)] | 0.609 | 0.273 | 0.443
18 | COc1cc(-c2nc3c([nH]2)c(=O)n(C)c(=O)n3C)ccc1OCC(=O)N1CCOCC1 [1,3-Dimethyl-8-[3-methoxy-4-{2-(morpholin-1-yl)-2-oxoethoxy}-phenyl]xanthine (15f, RB-385)] | > 30 | 2.74 | > 30
19 | CCN(CC)CCNC(=O)COc1cc(-c2nc3c([nH]2)c(=O)n(C)c(=O)n3C)ccc1OC [8-[{3-(2-(Diethylaminoethylamino)-2-oxoethoxy)-4-methoxy}phenyl]-1,3-dimethylxanthine (16b, RB-411)] | 1.97 | 0.126 | 8.05
20 | CCN(CC)CCNC(=O)COc1cccc(-c2nc3c([nH]2)c(=O)n(C)c(=O)n3C)c1 [8-[3-{2-(Diethylaminoethylamino)-2-oxoethoxy}-phenyl]-1,3-dimethylxanthine (14b, RB-378)] | 1.22 | 0.179 | 4.91
21 | CCN(CC)CCNC(=O)COc1ccc(-c2nc3c([nH]2)c(=O)n(C)c(=O)n3C)cc1OC [8-[{4-(2-(Diethylaminoethylamino)-2-oxoethoxy)-3-methoxy}-phenyl]-1,3-dimethyl-xanthine (15b, RB-388)] | > 10 | 0.692 | > 10
22 | CN(C)CCNC(=O)COc1cccc(-c2nc3c([nH]2)c(=O)n(C)c(=O)n3C)c1 [1,3-Dimethyl-8-[3-{2-(dimethylaminoethylamino)-2-oxoethoxy}-phenyl]xanthine (14a, RB-379)] | 0.683 | 0.163 | 2.83
23 | COc1cc(-c2nc3c([nH]2)c(=O)n(C)c(=O)n3C)ccc1OCC(=O)N1CCCC1 [1,3-Dimethyl-8-[3-methoxy-4-{2-(pyrrolidin-1-yl)-2-oxoethoxy}-phenyl]xanthine (15c, RB-392)] | > 30 | 4.57 | > 30
24 | COC(=O)COc1cc(-c2nc3c([nH]2)c(=O)n(C)c(=O)n3C)ccc1OC [1,3-Dimethyl-8-[{3-(2-methoxy-2-oxoethoxy)-4-methoxy}-phenyl]xanthine (16, RB-410)] | 11.8 | 0.717 | > 10
25 | COc1ccc(-c2nc3c([nH]2)c(=O)n(C)c(=O)n3C)cc1OCC(=O)N1CCCCC1 [1,3-Dimethyl-8-[4-methoxy-3-{2-(piperidin-1-yl)-2-oxoethoxy}-phenyl]xanthine (16d, RB-417)] | 1.62 | 0.076 | > 10
26 | Cn1c(=O)c2[nH]c(-c3ccc(OCC(=O)N4CCCCC4)cc3)nc2n(C)c1=O [1,3-Dimethyl-8-[4-{2-(piperidin-1-yl)-2-oxoethoxy}-phenyl]xanthine (13d, RB-427)] | 0.419 | 0.178 | 0.401
27 | COc1cc(-c2nc3c([nH]2)c(=O)n(C)c(=O)n3C)ccc1OCC(=O)N1CCCCC1 [1,3-Dimethyl-8-[3-methoxy-4-{2-(piperidin-1-yl)-2-oxoethoxy}-phenyl]xanthine (15d, RB-391)] | > 30 | 3.35 | > 10
28 | Cn1c(=O)c2[nH]c(-c3cccc(OCC(=O)N4CCOCC4)c3)nc2n(C)c1=O [1,3-Dimethyl-8-[3-{2-(morpholin-1-yl)-2-oxoethoxy}-phenyl]xanthine (14f, RB-375)] | 5.37 | 0.679 | > 10
